Test results reported in ChEMBL document CHEMBL4177715, “Synthesis of radioiodinated probes targeted toward matrix metalloproteinase-12” (Bioorg Med Chem Lett, 2018).
Blank lines part the entries; values can stand above or below the compound they belong to.

Key:
[1] = target: Collagenase 3 (Homo sapiens, UniProt P45452); test: Inhibition of recombinant human MMP13 using Mca-Pro-Leu-Gly-Leu-Dpa(Dnp)-Ala-Arg-NH2 as substrate after 30 mins by fluorescence spectrometry
[2] = target: Macrophage metalloelastase (Homo sapiens, UniProt P39900); test: Inhibition of recombinant human MMP12 using Mca-Pro-Leu-Gly-Leu-Dpa(Dnp)-Ala-Arg-NH2 as substrate after 30 mins by fluorescence spectrometry
Macrophage metalloelastase, sequence (P39900 whole entry): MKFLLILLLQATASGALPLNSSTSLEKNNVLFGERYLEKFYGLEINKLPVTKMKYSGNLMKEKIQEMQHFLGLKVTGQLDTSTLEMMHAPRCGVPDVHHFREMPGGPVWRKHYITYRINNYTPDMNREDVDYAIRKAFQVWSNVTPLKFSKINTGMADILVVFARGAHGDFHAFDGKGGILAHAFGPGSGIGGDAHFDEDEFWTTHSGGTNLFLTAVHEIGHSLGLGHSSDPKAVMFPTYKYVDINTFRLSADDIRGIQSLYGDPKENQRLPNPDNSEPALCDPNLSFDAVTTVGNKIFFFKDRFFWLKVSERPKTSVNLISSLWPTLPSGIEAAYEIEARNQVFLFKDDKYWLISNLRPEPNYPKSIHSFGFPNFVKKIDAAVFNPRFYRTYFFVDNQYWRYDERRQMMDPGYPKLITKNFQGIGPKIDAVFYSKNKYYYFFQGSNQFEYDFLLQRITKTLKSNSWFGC

IC50 [1]: 403 nM | IC50 [2]: 297 nM
Compound: CC(C)[C@H](NS(=O)(=O)c1ccc2c(c1)oc1ccc(NS(=O)(=O)c3ccc(I)cc3)cc12)C(=O)O

IC50 [1]: 69 nM | IC50 [2]: 8.5 nM
Compound: CC(C)[C@H](NS(=O)(=O)c1ccc2c(c1)oc1ccc(NC(=O)Oc3ccc(I)cc3)cc12)C(=O)O

IC50 [1]: > 2000 nM | IC50 [2]: 502 nM
Compound: CC(C)[C@H](NS(=O)(=O)c1ccc2c(c1)oc1ccc(NC(=O)c3ccc(I)cc3)cc12)C(=O)O

Second part, the compound before the results:

Compound: CC(C)[C@H](NS(=O)(=O)c1ccc2c(c1)oc1ccc(NC(=O)Oc3ccc(F)cc3)cc12)C(=O)O
IC50 [1]: 65 nM

Compound: CC(C)[C@H](NS(=O)(=O)c1ccc2c(c1)oc1ccc(NC(=O)Oc3ccc(Br)cc3)cc12)C(=O)O
IC50 [1]: 51 nM | IC50 [2]: 11 nM
